Assays:
[1] = Cytotoxicity against human H460 cells measured after 72 hrs by MTT assay; details: NCI-H460, 72 h
[2] = test system: A549; experiment: Cytotoxicity against human A549 cells measured after 72 hrs by MTT assay; format: functional, cell-based; details: A549, 72 h
[3] = Cytotoxicity against human MKN45 cells measured after 72 hrs by MTT assay; format: functional, cell-based; details: MKN-45, 72 h
[4] = test system: HT-29; experiment: Cytotoxicity against human HT-29 cells measured after 72 hrs by MTT assay; details: HT-29, 72 h
[5] = molecular target: Vascular endothelial growth factor receptor 2 (Homo sapiens, UniProt P35968); experiment: Inhibition of VEGFR2 (unknown origin) using poly (Glu, Tyr) 4:1 as substrate incubated for 30 mins by HTRF assay
Sequence of Vascular endothelial growth factor receptor 2 (P35968 whole entry): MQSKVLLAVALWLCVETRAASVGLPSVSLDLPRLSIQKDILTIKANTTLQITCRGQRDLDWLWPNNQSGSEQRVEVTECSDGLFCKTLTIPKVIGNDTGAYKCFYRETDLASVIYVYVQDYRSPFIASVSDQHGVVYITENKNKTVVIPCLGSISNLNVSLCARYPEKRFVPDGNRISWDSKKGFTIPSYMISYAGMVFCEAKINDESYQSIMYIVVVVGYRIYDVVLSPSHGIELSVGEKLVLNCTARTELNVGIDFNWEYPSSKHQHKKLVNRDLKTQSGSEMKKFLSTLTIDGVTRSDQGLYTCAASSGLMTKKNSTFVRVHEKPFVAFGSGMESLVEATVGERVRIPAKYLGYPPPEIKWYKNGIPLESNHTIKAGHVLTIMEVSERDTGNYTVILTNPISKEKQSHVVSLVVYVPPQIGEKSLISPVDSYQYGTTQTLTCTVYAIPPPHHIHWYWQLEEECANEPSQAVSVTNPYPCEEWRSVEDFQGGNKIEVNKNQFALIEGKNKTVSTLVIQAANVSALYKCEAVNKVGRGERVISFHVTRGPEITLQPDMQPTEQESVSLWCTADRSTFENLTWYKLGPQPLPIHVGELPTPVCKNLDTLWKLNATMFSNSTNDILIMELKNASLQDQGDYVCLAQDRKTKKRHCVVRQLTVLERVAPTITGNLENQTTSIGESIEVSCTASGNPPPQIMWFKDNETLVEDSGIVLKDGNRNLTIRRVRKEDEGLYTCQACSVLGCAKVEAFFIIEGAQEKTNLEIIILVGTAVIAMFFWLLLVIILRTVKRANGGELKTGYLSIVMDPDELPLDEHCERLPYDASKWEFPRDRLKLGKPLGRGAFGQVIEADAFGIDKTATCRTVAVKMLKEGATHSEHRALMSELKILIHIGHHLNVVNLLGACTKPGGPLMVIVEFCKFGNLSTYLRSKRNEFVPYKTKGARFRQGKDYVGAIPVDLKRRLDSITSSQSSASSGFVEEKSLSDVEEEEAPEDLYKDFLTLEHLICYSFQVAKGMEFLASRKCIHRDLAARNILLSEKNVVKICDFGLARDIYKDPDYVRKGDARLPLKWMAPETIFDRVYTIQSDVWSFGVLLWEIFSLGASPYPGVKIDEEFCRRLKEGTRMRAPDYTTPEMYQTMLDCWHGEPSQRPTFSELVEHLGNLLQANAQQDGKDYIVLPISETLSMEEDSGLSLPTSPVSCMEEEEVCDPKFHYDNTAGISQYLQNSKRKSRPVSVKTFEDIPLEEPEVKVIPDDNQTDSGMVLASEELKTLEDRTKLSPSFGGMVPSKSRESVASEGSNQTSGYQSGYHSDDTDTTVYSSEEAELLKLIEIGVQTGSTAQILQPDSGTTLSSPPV

[6] = molecular target: Hepatocyte growth factor receptor (Homo sapiens, UniProt P08581); experiment: Inhibition of c-Met (unknown origin) using poly (Glu, Tyr) 4:1 as substrate incubated for 30 mins by HTRF assay
Sequence of Hepatocyte growth factor receptor (P08581 whole entry): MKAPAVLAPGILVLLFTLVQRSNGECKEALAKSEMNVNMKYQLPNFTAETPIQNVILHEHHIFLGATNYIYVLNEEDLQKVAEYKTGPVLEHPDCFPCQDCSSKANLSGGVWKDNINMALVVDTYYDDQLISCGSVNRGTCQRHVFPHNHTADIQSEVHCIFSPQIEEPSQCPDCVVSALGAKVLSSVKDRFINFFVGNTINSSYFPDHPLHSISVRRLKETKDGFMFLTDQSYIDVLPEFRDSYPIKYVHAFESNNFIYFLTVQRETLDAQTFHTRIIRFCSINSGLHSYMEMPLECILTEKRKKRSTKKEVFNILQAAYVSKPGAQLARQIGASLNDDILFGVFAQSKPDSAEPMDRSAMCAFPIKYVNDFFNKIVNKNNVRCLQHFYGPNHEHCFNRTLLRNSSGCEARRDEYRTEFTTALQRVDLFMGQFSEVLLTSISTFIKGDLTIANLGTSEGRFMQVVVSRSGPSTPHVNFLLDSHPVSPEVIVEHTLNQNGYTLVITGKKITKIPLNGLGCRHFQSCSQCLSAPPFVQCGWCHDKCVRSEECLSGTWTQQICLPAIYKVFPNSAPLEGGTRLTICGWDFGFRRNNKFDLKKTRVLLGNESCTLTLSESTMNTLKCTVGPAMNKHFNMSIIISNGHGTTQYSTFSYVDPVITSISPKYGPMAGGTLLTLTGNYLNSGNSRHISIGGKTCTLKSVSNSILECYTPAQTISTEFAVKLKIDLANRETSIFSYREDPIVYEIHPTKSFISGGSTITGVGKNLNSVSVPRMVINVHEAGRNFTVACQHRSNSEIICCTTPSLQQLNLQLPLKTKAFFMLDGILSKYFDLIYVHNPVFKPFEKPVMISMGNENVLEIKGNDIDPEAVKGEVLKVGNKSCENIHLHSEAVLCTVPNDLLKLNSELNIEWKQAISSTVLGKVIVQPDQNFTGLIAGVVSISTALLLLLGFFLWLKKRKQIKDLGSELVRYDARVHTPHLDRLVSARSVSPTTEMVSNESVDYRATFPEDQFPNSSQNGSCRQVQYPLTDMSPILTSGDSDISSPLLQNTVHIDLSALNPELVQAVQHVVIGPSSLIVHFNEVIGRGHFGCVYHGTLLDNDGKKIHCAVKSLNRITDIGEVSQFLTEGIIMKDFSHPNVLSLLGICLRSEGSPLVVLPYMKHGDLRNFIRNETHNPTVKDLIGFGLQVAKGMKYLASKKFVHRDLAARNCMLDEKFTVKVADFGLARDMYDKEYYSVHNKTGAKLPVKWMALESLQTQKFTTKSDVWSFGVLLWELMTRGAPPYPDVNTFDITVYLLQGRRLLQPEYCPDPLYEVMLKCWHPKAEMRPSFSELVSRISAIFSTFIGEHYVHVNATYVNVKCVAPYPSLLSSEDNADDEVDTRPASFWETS

[7] = test system: MKN-45; experiment: Potency index, ratio of foretinib IC50 to compound IC50 for human MKN45 cells; format: functional
[8] = molecular target: Mast/stem cell growth factor receptor Kit (Homo sapiens, UniProt P10721); experiment: Inhibition of c-kit (unknown origin) using poly (Glu, Tyr) 4:1 as substrate incubated for 30 mins by HTRF assay
Sequence of Mast/stem cell growth factor receptor Kit (P10721 whole entry): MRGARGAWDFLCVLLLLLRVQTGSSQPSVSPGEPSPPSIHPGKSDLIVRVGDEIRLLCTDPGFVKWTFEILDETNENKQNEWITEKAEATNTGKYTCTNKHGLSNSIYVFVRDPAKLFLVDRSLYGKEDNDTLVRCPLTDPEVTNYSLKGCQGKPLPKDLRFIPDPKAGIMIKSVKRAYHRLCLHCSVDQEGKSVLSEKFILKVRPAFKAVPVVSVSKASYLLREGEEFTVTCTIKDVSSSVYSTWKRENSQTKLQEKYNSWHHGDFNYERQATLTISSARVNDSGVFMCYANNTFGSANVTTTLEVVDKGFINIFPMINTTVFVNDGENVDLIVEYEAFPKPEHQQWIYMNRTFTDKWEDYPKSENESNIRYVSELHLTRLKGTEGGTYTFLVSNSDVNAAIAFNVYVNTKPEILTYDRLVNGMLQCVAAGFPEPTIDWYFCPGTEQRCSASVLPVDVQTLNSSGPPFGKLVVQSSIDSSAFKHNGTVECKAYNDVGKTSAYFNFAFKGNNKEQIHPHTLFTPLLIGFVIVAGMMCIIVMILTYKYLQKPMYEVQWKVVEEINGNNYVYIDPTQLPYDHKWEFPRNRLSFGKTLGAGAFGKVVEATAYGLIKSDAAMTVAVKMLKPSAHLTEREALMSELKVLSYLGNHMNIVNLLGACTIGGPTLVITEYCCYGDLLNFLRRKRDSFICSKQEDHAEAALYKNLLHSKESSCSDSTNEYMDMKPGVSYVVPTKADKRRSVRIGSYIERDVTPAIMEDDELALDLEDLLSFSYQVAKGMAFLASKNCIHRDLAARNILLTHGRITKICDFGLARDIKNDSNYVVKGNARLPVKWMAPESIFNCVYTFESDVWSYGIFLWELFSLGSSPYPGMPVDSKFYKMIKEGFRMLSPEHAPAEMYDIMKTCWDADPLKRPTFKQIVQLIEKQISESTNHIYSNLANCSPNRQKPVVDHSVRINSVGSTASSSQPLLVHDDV

[9] = molecular target: Epidermal growth factor receptor (Homo sapiens, UniProt P00533); experiment: Inhibition of EGFR (unknown origin) using poly (Glu, Tyr) 4:1 as substrate incubated for 30 mins by HTRF assay
Sequence of Epidermal growth factor receptor (P00533 whole entry): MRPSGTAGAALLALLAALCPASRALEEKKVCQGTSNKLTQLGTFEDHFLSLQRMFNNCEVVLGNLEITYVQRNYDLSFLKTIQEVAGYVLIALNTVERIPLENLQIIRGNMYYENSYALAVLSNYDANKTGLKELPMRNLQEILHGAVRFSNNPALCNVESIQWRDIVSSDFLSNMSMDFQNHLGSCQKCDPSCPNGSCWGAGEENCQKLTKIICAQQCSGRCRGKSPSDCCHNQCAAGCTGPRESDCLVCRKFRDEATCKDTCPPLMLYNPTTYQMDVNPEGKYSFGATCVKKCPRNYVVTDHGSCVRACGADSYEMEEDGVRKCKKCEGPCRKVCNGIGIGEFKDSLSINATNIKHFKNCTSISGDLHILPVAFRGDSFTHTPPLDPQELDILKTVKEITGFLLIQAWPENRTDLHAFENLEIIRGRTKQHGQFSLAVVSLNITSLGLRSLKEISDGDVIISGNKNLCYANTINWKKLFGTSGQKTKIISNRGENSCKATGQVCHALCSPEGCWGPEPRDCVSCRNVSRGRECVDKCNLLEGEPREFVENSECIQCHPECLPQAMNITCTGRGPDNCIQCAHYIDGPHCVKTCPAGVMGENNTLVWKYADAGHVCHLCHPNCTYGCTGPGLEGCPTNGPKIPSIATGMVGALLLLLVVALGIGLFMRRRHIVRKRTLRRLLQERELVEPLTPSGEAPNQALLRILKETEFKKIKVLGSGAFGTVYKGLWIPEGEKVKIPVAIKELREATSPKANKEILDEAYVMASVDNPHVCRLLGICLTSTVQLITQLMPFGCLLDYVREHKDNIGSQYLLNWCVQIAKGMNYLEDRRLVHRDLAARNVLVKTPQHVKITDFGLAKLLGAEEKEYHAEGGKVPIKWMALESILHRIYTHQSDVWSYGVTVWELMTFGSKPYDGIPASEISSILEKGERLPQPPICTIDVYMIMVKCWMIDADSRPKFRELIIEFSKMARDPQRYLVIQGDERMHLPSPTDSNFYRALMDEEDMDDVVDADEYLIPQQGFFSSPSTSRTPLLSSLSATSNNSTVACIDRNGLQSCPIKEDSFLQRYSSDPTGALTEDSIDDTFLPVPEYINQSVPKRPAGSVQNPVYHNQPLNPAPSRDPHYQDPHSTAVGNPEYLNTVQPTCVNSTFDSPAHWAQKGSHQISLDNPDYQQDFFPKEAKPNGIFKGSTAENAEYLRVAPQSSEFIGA

[10] = molecular target: T1, Receptor-type tyrosine-protein kinase FLT3 (Homo sapiens, UniProt P36888); experiment: Inhibition of FLT3 (unknown origin) using poly (Glu, Tyr) 4:1 as substrate incubated for 30 mins by HTRF assay
T1 sequence (P36888 whole entry): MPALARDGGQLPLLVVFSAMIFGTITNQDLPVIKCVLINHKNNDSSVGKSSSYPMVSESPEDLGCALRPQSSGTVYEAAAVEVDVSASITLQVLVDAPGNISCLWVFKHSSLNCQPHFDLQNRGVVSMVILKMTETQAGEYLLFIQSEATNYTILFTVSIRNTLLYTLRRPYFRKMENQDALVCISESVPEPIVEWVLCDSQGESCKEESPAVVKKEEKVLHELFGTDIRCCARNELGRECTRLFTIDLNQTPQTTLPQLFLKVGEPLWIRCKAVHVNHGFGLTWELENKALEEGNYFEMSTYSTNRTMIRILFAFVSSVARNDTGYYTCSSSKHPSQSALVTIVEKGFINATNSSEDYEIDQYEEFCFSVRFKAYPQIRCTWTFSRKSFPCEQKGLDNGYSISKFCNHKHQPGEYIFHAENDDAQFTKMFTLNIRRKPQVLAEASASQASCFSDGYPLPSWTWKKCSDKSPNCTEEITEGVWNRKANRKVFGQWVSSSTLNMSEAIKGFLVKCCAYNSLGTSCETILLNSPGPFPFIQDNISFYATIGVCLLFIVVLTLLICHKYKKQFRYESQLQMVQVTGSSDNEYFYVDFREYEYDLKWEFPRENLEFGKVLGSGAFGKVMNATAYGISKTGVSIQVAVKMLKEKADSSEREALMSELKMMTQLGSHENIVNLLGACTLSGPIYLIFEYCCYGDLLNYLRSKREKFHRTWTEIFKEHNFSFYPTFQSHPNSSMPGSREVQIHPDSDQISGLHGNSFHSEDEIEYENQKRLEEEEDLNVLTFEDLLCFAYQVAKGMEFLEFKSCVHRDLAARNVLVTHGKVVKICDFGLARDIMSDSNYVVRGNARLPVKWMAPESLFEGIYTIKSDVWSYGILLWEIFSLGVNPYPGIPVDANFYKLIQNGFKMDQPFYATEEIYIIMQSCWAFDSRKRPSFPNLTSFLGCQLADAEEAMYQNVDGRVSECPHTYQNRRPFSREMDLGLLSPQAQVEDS

[11] = molecular target: Macrophage-stimulating protein receptor (Homo sapiens, UniProt Q04912); experiment: Inhibition of Ron (unknown origin) using poly (Glu, Tyr) 4:1 as substrate incubated for 30 mins by HTRF assay
[12] = Potency index, ratio of foretinib IC50 to compound IC50 for human H460 cells; format: functional
[13] = test system: HT-29; experiment: Potency index, ratio of foretinib IC50 to compound IC50 for human HT-29 cells; format: functional
[14] = test system: A549; experiment: Potency index, ratio of foretinib IC50 to compound IC50 for human A549 cells; format: functional

SMILES	IC50 [1]	IC50 [2]	IC50 [3]	IC50 [4]	further results
COc1cc2c(Oc3ccc(NC(=O)c4cn(-c5ccc(F)c(F)c5)nn4)cc3F)ccnc2cc1OCCCN1CCC(C)CC1	260 nM	1460 nM	1290 nM	810 nM	
COc1cc2c(Oc3ccc(NC(=O)c4cn(-c5ccccc5)nn4)cc3F)ccnc2cc1OCCCN1CCC(C)CC1	210 nM	140 nM	90 nM	190 nM	
COc1cc2c(Oc3ccc(NC(=O)c4cn(-c5ccccc5F)nn4)cc3F)ccnc2cc1OCCCN1CCC(C)CC1	190 nM	250 nM	130 nM	210 nM	
COc1cc2c(Oc3ccc(NC(=O)c4cn(-c5ccc(Br)cc5)nn4)cc3F)ccnc2cc1OCCCN1CCCC1	200 nM	370 nM	120 nM	190 nM	
COc1cc2c(Oc3ccc(NC(=O)c4cn(-c5ccccc5C)nn4)cc3F)ccnc2cc1OCCCN1CCC(C)CC1	2730 nM	3500 nM		2380 nM	
COc1cc2c(Oc3ccc(NC(=O)c4cn(-c5c(C)cccc5C)nn4)cc3F)ccnc2cc1OCCCN1CCCCC1	3520 nM		2140 nM	3690 nM	
COc1cc2c(Oc3ccc(NC(=O)c4cn(-c5ccccc5Cl)nn4)cc3F)ccnc2cc1OCCCN1CCCCC1	180 nM	70 nM	30 nM	100 nM	IC50 [5]: 96.7 nM; IC50 [6]: 2.27 nM; Ratio IC50 [7]: 1.1; IC50 [8]: 9.36 nM; IC50 [9]: 529 nM; IC50 [10]: 8.91 nM; IC50 [11]: 346 nM; Ratio IC50 [12]: 1.2; Ratio IC50 [13]: 1.9; Ratio IC50 [14]: 1.6
COc1cc2c(Oc3ccc(NC(=O)c4cn(-c5ccccc5)nn4)cc3F)ccnc2cc1OCCCN1CCCCC1	210 nM	130 nM	100 nM	180 nM	
COc1cc2c(Oc3ccc(NC(=O)c4cn(-c5ccccc5Cl)nn4)cc3F)ccnc2cc1OCCCN1CCCC1	190 nM	330 nM	70 nM	150 nM	
COc1cc2c(Oc3ccc(NC(=O)c4cn(-c5c(Cl)cccc5Cl)nn4)cc3F)ccnc2cc1OCCCN1CCC(C)CC1	270 nM	320 nM	120 nM	1390 nM	
COc1cc2c(Oc3ccc(NC(=O)c4cn(-c5c(Cl)cccc5Cl)nn4)cc3F)ccnc2cc1OCCCN1CCCCC1	280 nM	150 nM		240 nM	
COc1cc2c(Oc3ccc(NC(=O)c4cn(-c5c(C)cccc5C)nn4)cc3F)ccnc2cc1OCCCN1CCOCC1	4320 nM			6140 nM	
COc1cc2c(Oc3ccc(NC(=O)c4cn(-c5ccccc5)nn4)cc3F)ccnc2cc1OCCCN1CCOCC1	450 nM	720 nM	110 nM	350 nM	
COc1cc2c(Oc3ccc(NC(=O)c4cn(-c5ccc(F)c(F)c5)nn4)cc3F)ccnc2cc1OCCCN1CCCCC1	250 nM	220 nM	310 nM	210 nM	
COc1cc2c(Oc3ccc(NC(=O)c4cn(-c5ccccc5F)nn4)cc3F)ccnc2cc1OCCCN1CCN(C)CC1	230 nM	250 nM	140 nM	300 nM	
COc1cc2c(Oc3ccc(NC(=O)c4cn(-c5ccccc5)nn4)cc3F)ccnc2cc1OCCCN1CCN(C)CC1	200 nM	160 nM	60 nM	180 nM	

SMILES	IC50 [1]	IC50 [2]	IC50 [3]	IC50 [4]	further results
COc1cc2c(Oc3ccc(NC(=O)c4cn(-c5ccc(Br)cc5)nn4)cc3F)ccnc2cc1OCCCN1CCOCC1	130 nM	180 nM	90 nM	260 nM	
COc1cc2c(Oc3ccc(NC(=O)c4cn(-c5ccccc5)nn4)cc3F)ccnc2cc1OCCCN1CCCC1	280 nM	360 nM	260 nM	180 nM	
COc1cc2c(Oc3ccc(NC(=O)c4cn(-c5c(C)cccc5C)nn4)cc3F)ccnc2cc1OCCCN1CCCC1	1560 nM	1240 nM	3490 nM	2240 nM	
COc1cc2c(Oc3ccc(NC(=O)c4cn(-c5c(Cl)cccc5Cl)nn4)cc3F)ccnc2cc1OCCCN1CCOCC1	290 nM		110 nM	270 nM	
COc1cc2c(Oc3ccc(NC(=O)c4cn(-c5c(C)cccc5C)nn4)cc3F)ccnc2cc1OCCCN1CCN(C)CC1	4540 nM	2180 nM		2170 nM	
COc1cc2c(Oc3ccc(NC(=O)c4cn(-c5ccccc5Cl)nn4)cc3F)ccnc2cc1OCCCN1CCOCC1	210 nM	530 nM	270 nM	240 nM	
COc1cc2c(Oc3ccc(NC(=O)c4cn(-c5ccccc5C)nn4)cc3F)ccnc2cc1OCCCN1CCN(C)CC1	3650 nM	3100 nM		1430 nM	
COc1cc2c(Oc3ccc(NC(=O)c4cn(-c5ccccc5Cl)nn4)cc3F)ccnc2cc1OCCCN1CCC(C)CC1	230 nM	370 nM	240 nM	130 nM	
COc1cc2c(Oc3ccc(NC(=O)c4cn(-c5ccccc5C)nn4)cc3F)ccnc2cc1OCCCN1CCCC1	1260 nM	900 nM		1200 nM	
COc1cc2c(Oc3ccc(NC(=O)c4cn(-c5ccc(F)c(F)c5)nn4)cc3F)ccnc2cc1OCCCN1CCN(C)CC1	250 nM	200 nM	160 nM	430 nM	
COc1cc2c(Oc3ccc(NC(=O)c4cn(-c5ccccc5C)nn4)cc3F)ccnc2cc1OCCCN1CCCCC1	2100 nM	3230 nM	3250 nM	1340 nM	
COc1cc2c(Oc3ccc(NC(=O)c4cn(-c5ccccc5Cl)nn4)cc3F)ccnc2cc1OCCCN1CCN(C)CC1	290 nM	150 nM	70 nM	160 nM	
COc1cc2c(Oc3ccc(NC(=O)c4cn(-c5ccc(Br)cc5)nn4)cc3F)ccnc2cc1OCCCN1CCCCC1	360 nM	230 nM	150 nM	260 nM	
COc1cc2c(Oc3ccc(NC(=O)c4cn(-c5c(C)cccc5C)nn4)cc3F)ccnc2cc1OCCCN1CCC(C)CC1	2360 nM	3340 nM	4310 nM	2450 nM	
COc1cc2c(Oc3ccc(NC(=O)c4cn(-c5ccccc5F)nn4)cc3F)ccnc2cc1OCCCN1CCCCC1	210 nM	2770 nM	1290 nM	290 nM	

— ChEMBL document CHEMBL3822439, “Discovery of a novel 6,7-disubstituted-4-(2-fluorophenoxy)quinolines bearing 1,2,3-triazole-4-carboxamide moiety as potent c-Met kinase inhibitors” (Eur J Med Chem, 2016)
